Source: US6552068B1, “3-ethyl-, 3-propyl- or 3-butyl-chroman and thiochroman derivatives” (Chugai Seiyaku Kabushiki Kaisha, priority 1999, dated 2003)

Tested on: ovariectomized mice administered with 17β-estradiol (increase in uterine weight)
Test: Anti-estrogenic activity (oral administration): inhibition of estradiol-induced increase in uterine weight
Type: in vivo
Details: 10 mg/kg p.o. once a day for 3 days, suspended in 5% arabic gum; ovariectomized ICR mice given 17β-estradiolbenzoate 0.1 μg/mouse s.c. for 3 days; uteri weighed 24 hours after last administration
Experimental: Test compounds were assayed for their oral anti-estrogenic activity in the following manner. In this experiment, the compounds prepared in Examples mentioned above were used as test compounds. As control compounds, the following two were used: a compound described in Example 7 of WO98/25916 and a compound corresponding to general formula (1) of the present invention, provided that R1 was a methyl group, i.e., 10-[(3RS,4RS)-7-hydroxy-3-(4-hydroxyphenyl)-3-methylthiochroman-4-yl]-2-(4,4,5,5,5-pentafluoropentyl)decanoic acid, which had been synthesized according to Reaction Schemes 1 to 7 mentioned above.
In this experiment, each of the test and control compounds was suspended in 5% arabic gum solution and orally administered for 3 days on a once-a-day basis. After 24 hours from the last administration, the test animals were sacrificed and the uteri were removed and weighed.

SMILES	Inhibition (%) of the increase in uterine weight
CCC[C@@]1(c2ccc(O)cc2)CSc2cc(O)ccc2[C@@H]1CCCCCCCCCC(CCCC(F)(F)C(F)(F)F)C(=O)O (mixture of isomers) [Example 38, 11-[(3RS,4RS)-7-hydroxy-3-(4-hydroxyphenyl)-3-propylthiochroman-4-yl]-2-(4,4,5,5,5,-pentafluoropentyl)undecanoic acid]	84%

Same assay, conditions: po; 10 mg/kg p.o. once a day for 3 days, suspended in 5% arabic gum; ovariectomized ICR mice given 17β-estradiolbenzoate 0.1 μg/mouse s.c. for 3 days; uteri weighed 24 hours after last administration

SMILES	inhibition in vivo at 10 mg/kg
CC[C@]1(c2ccc(O)cc2)CSc2cc(O)ccc2[C@H]1CCCCCCCCC(CCCCCC(F)(F)C(F)(F)F)C(=O)O (mixture of isomers) [Example 14, 10-[(3RS,4RS)-3-ethyl-7-hydroxy-3-(4-hydroxyphenyl)thiochroman-4-yl]-2-(6,6,7,7,7-pentafluoroheptyl)decanoic acid]	81%
CCC[C@@]1(c2ccc(O)cc2)CSc2cc(O)ccc2[C@@H]1CCCCCCCCCC(CCC(F)(F)C(F)(F)C(F)(F)C(F)(F)F)C(=O)O (mixture of isomers) [Example 39, 11-[(3RS,4RS)-7-hydroxy-3-(4-hydroxyphenyl)-3-propylthiochroman-4-yl]-2-(3,3,4,4,5,5,6,6,6-nonafluorohexyl)undecanoic acid]	84%
CCC[C@@]1(c2ccc(O)cc2)COc2cc(O)ccc2[C@@H]1CCCCCCCCCC(CCCC(F)(F)C(F)(F)C(F)(F)C(F)(F)F)C(=O)O (mixture of isomers) [Example 46, 11-[(3RS,4RS)-7-hydroxy-3-(4-hydroxyphenyl)-3-propylchroman-4-yl]-2-(4,4,5,5,6,6,7,7,7-nonafluoroheptyl)undecanoic acid]	94%
CC[C@]1(c2ccc(O)cc2)CSc2cc(O)ccc2[C@H]1CCCCCCCCC(CCCC(F)(F)C(F)(F)F)C(=O)O (mixture of isomers) [Example 16, 10-[(3RS,4RS)-3-ethyl-7-hydroxy-3-(4-hydroxyphenyl)thiochroman-4-yl]-2-(4,4,5,5,5-pentafluoropentyl)decanoic acid]	96%
CCCC[C@@]1(c2ccc(O)cc2)COc2cc(O)ccc2[C@@H]1CCCCCCCCC(CCCC(F)(F)C(F)(F)C(F)(F)C(F)(F)F)C(=O)O (mixture of isomers) [Example 47, 10-[(3RS,4RS)-3-butyl-7-hydroxy-3-(4-hydroxyphenyl)chroman-4-yl]-2-(4,4,5,5,6,6,7,7,7-nonafluoroheptyl)decanoic acid]	89%
CC[C@@]1(c2ccc(O)cc2)CSc2cc(O)ccc2[C@@H]1CCCCCCCCCC(CCC(F)(F)C(F)(F)C(F)(F)C(F)(F)F)C(=O)O (mixture of isomers) [Example 30, 11-[(3RS,4RS)-3-ethyl-7-hydroxy-3-(4-hydroxyphenyl)thiochroman-4-yl]-2-(3,3,4,4,5,5,6,6,6-nonafluorohexyl)undecanoic acid]	89%
CC[C@]1(c2ccc(O)cc2)CSc2cc(O)ccc2[C@H]1CCCCCCCCC(CCCCC(F)(F)C(F)(F)F)C(=O)O (mixture of isomers) [Example 15, 10-[(3RS,4RS)-3-ethyl-7-hydroxy-3-(4-hydroxyphenyl)thiochroman-4-yl]-2-(5,5,6,6,6-pentafluorohexyl)decanoic acid]	92%
CC[C@@]1(c2ccc(O)cc2)COc2cc(O)ccc2[C@@H]1CCCCCCCCC(CCCC(F)(F)C(F)(F)C(F)(F)C(F)(F)F)C(=O)O (mixture of isomers) [Example 34, 10-[(3RS,4RS)-3-ethyl-7-hydroxy-3-(4-hydroxyphenyl)chroman-4-yl]-2-(4,4,5,5,6,6,7,7,7-nonafluoroheptyl)decanoic acid]	90%
CCC[C@@]1(c2ccc(O)cc2)COc2cc(O)ccc2[C@@H]1CCCCCCCCCC(CCC(F)(F)C(F)(F)C(F)(F)C(F)(F)F)C(=O)O (mixture of isomers) [Example 45, 11-[(3RS,4RS)-7-hydroxy-3-(4-hydroxyphenyl)-3-propylchroman-4-yl]-2-(3,3,4,4,5,5,6,6,6-nonafluorohexyl)undecanoic acid]	85%
CCC[C@@]1(c2ccc(O)cc2)CSc2cc(O)ccc2[C@@H]1CCCCCCCCC(CCCCC(F)(F)C(F)(F)F)C(=O)O (mixture of isomers) [Example 36, 10-[(3RS,4RS)-7-hydroxy-3-(4-hydroxyphenyl)-3-propylthiochroman-4-yl]-2-(5,5,6,6,6-pentafluorohexyl)decanoic acid]	89%
CC[C@@]1(c2ccc(O)cc2)COc2cc(O)ccc2[C@@H]1CCCCCCCCCC(CCCCCC(F)(F)C(F)(F)F)C(=O)O (mixture of isomers) [Example 22, 11-[(3RS,4RS)-3-ethyl-7-hydroxy-3-(4-hydroxyphenyl)chroman-4-yl]-2-(6,6,7,7,7-pentafluoroheptyl)undecanoic acid]	83%
CCC[C@@]1(c2ccc(O)cc2)COc2cc(O)ccc2[C@@H]1CCCCCCCCCC(CCCC(F)(F)C(F)(F)F)C(=O)O (mixture of isomers) [Example 43, 11-[(3RS,4RS)-7-hydroxy-3-(4-hydroxyphenyl)-3-propylchroman-4-yl]-2-(4,4,5,5,5-pentafluoropentyl)undecanoic acid]	85%
CC[C@@]1(c2ccc(O)cc2)COc2cc(O)ccc2[C@@H]1CCCCCCCCCC(CCC(F)(F)C(F)(F)C(F)(F)C(F)(F)F)C(=O)O (mixture of isomers) [Example 32, 11-[(3RS,4RS)-3-ethyl-7-hydroxy-3-(4-hydroxyphenyl)chroman-4-yl]-2-(3,3,4,4,5,5,6,6,6-nonafluorohexyl)undecanoic acid]	82%
CC[C@@]1(c2ccc(O)cc2)COc2cc(O)ccc2[C@@H]1CCCCCCCCCC(CCCC(F)(F)C(F)(F)C(F)(F)C(F)(F)F)C(=O)O (mixture of isomers) [Example 35, 11-[(3RS,4RS)-3-ethyl-7-hydroxy-3-(4-hydroxyphenyl)chroman-4-yl]-2-(4,4,5,5,6,6,7,7,7-nonafluoroheptyl)undecanoic acid]	93%
CCC[C@@]1(c2ccc(O)cc2)COc2cc(O)ccc2[C@@H]1CCCCCCCCC(CCC(F)(F)C(F)(F)C(F)(F)C(F)(F)F)C(=O)O (mixture of isomers) [Example 41, 10-[(3RS,4RS)-7-hydroxy-3-(4-hydroxyphenyl)-3-propylchroman-4-yl]-2-(3,3,4,4,5,5,6,6,6-nonafluorohexyl)decanoic acid]	89%
CCC[C@@]1(c2ccc(O)cc2)COc2cc(O)ccc2[C@@H]1CCCCCCCCC(CCCC(F)(F)C(F)(F)C(F)(F)C(F)(F)F)C(=O)O (mixture of isomers) [Example 42, 10-[(3RS,4RS)-7-hydroxy-3-(4-hydroxyphenyl)-3-propylchroman-4-yl]-2-(4,4,5,5,6,6,7,7,7-nonafluoroheptyl)decanoic acid]	95%
CCC[C@@]1(c2ccc(O)cc2)COc2cc(O)ccc2[C@@H]1CCCCCCCCCC(CCCCC(F)(F)C(F)(F)F)C(=O)O (mixture of isomers) [Example 44, 11-[(3RS,4RS)-7-hydroxy-3-(4-hydroxyphenyl)-3-propylchroman-4-yl]-2-(5,5,6,6,6-pentafluorohexyl)undecanoic acid]	84%
CCC[C@@]1(c2ccc(O)cc2)CSc2cc(O)ccc2[C@@H]1CCCCCCCCC(CCCC(F)(F)C(F)(F)F)C(=O)O (mixture of isomers) [Example 29, 10-[(3RS,4RS)-7-hydroxy-3-(4-hydroxyphenyl)-3-propylthiochroman-4-yl]-2-(4,4,5,5,5-pentafluoropentyl)decanoic acid]	91%
CCC[C@@]1(c2ccc(O)cc2)COc2cc(O)ccc2[C@@H]1CCCCCCCCC(CCCCC(F)(F)C(F)(F)F)C(=O)O (mixture of isomers) [Example 40, 10-[(3RS,4RS)-7-hydroxy-3-(4-hydroxyphenyl)-3-propylchroman-4-yl]-2-(5,5,6,6,6-pentafluorohexyl)decanoic acid]	82%
CC[C@@]1(c2ccc(O)cc2)CSc2cc(O)ccc2[C@@H]1CCCCCCCCC(CCC(F)(F)C(F)(F)C(F)(F)C(F)(F)F)C(=O)O (mixture of isomers) [Example 31, 10-[(3RS,4RS)-3-ethyl-7-hydroxy-3-(4-hydroxyphenyl)thiochroman-4-yl]-2-(3,3,4,4,5,5,6,6,6-nonafluorohexyl)decanoic acid]	85%
C[C@@]1(c2ccc(O)cc2)CSc2cc(O)ccc2[C@@H]1CCCCCCCCC(CCCC(F)(F)C(F)(F)F)C(=O)O (mixture of isomers) [10-[(3RS,4RS)-7-hydroxy-3-(4-hydroxyphenyl)-3-methylthiochroman-4-yl]-2-(4,4,5,5,5-pentafluoropentyl)decanoic acid, reference compound]	75%
CC[C@]1(c2ccc(O)cc2)CSc2cc(O)ccc2[C@H]1CCCCCCCCCC(CCCC(F)(F)C(F)(F)F)C(=O)O (mixture of isomers) [Example 20, 11-[(3RS,4RS)-3-ethyl-7-hydroxy-3-(4-hydroxyphenyl)thiochroman-4-yl]-2-(4,4,5,5,5-pentafluoropentyl)undecanoic acid]	91%
